These results are taken from patent publication US20250073194A1, “RXR AGONISTS IN EYE DISORDERS” (Baylor College of Medicine, priority 2022, published 2025).

Test [1] deals with γδ T cells. Briefly: IL-17A/F in supernatants of stimulated cultured γδ T cells (ELISA). The class given is cell-based, mouse. Conditions: for suppressive effect on supernatant IL-17 concentration: bead+IL-23 stimulated, 100 nM 9-cis RA, 96 hours; for effect on IL-17A/F cytokine concentration in supernatants: C57BL/6 spleen γδ T cells, anti-CD3/CD28 beads plus recombinant IL-23, 10 and 100 nM (FIG. 12). Here is the method: (§1) Pooled γ/δ T17 cells from the spleens of 8-10 week old B6 and Pinkie mice were isolated using the TCR γ/δ T cells Isolation Kit according to the manufacturer's instruction (Miltenyi Biotec, Bergisch Gladbach, Germany). To determine the effect of 9CisRA and monocytes conditional media on IL17 cytokine production, the purified γδ T17 cells were stimulated with anti-CD3/CD28 Dynabeads (Catalog #11452D, Life Technologies AS, Norway) alone or in combination with IL-23 (10 ng/ml, eBioscience), 9-cisRA (100 nM) or monocyte conditioned media for 96 hours for cytokine measurement.
(§2) Mouse IL17 was measured from cell cultured supernatant after 96 hours incubation using a mouse IL-17 DuoSet Enzyme-linked immunosorbent assay (ELISA) (R&D systems, Minneapolis, USA)
In general terms: ELISA stands for enzyme-linked immunosorbent assay.

The subject of test [2] is monocytes. Kind of test: Stimulatory activity of conditioned media from LPS-treated monocytes on IL-17 production by γδ T cells. Type of test: cell-based, mouse. Conditions: LPS-stimulated cultured monocytes treated with 100 nM 9-cisRA. Here is the method: (§3) Monocytes were purified from 3 days cultured mouse bone marrow cells using the monocytes isolation kit, according to the manufacturer's instruction (BM, Miltenyi Biotec, Bergisch Gladbach, Germany). 5×10^5 monocytes plated in a 48 well plate were preincubated with 100 nM 9-cisRA for 1 hour followed by stimulation with 0.5 μg/ml LPS for 4 hours for RNA or overnight for cytokines. The total RNA was extracted using an RNeasy® Plus Mimi Kit (Cat No. 74134, QIAGEN GmbH, Hilden, Germany) according to manufacturer's instruction. The RNA and collected supernatants were stored at −80° C. until further use.
as §1, §2

In test [3] the test system is monocytes. Kind of test: Nanostring myeloid innate immunity array of LPS-stimulated cultured monocytes. Conditions: 100 nM 9-cis RA added to culture media. The class given is cell-based, mouse. Here is the method: as §3
This was performed by the Genomic and RNA Profiling Core at Baylor College of Medicine using the NanoString Technologies nCounter Gene Expression Mouse Myeloid Innate Immunity V2 Panel codeset (NS_MM_Myeloid_V2.0) containing 770 unique pairs of 35-50 bp reporter probes and biotin-labeled capture probes, including internal reference controls (NanoString, Seattle, WA) as previously described. (Alam et al., 2021a). Data was analyzed by ROSALIND® (https://rosalind.bio/), with a HyperScale architecture developed by ROSALIND, Inc. (San Diego, CA).

In test [4] the test system is monocytes. Conditions: 9-cis RA treated monocytes; cited from earlier work.
For test [5], the system named is γδ T cells. Conditions: stimulated with anti-CD28 antibody and cytokine cocktail of IL-23 and IL-1; cited from earlier work.

Entries after “also recorded” stand apart in the source; their conditions may differ. Some results are limits rather than exact numbers.

For the compound `CC1=C(/C=C/C(C)=C\C=C\C(C)=C\C(=O)O)C(C)(C)CCC1` [9-cis RA, 9-cis retinoic acid], the entries for the “suppressive effect on supernatant IL-17 concentration” value with γδ T cells [1] (B6 γδ T cells) and in the test on γδ T cells [1] (Pinkie γδ T cells) were 74% and 46%, respectively. The “effect on IL-17A/F cytokine concentration in supernatants” value (“effect … in supernatants” below) in the test on γδ T cells [1] was “suppressive effects”. Also, the “suppression of IL-17 production” value with γδ T cells [1] (cultured γδ T cells stimulated by CD28 beads or beads plus IL-23) is on record as greater than 70%. Besides, the “supernatant IL-17 concentration” value in the test on γδ T cells [1] (stimulated γδ T cells from both strains (B6 and Pinkie), 100 nM) is reported as “suppresses; also recorded: significantly reduced”. Further, the “stimulatory activity of monocyte conditioned media on γδ T cell IL-17 production” value is “suppresses; also recorded: significantly reduced” in the test on monocytes [2] and “significantly reduced” with monocytes [2] (listed as 9-cisRA). The “expression of γδT17 inducing cytokines (Il23a, Il12b, Il1α, Il1β, Tnf-α)” value in the test with monocytes [3] is listed as “suppressed; also recorded: reduced”; in the test on monocytes [3] (listed as 9-cisRA) it was “suppresses”. For the same compound, in the test on monocytes [4], the “levels of IL-1β and IL-23β in supernatants” value is reported as “reduced levels”.

On to `CC1(C)CCC(C)(C)c2cc(NC(=O)c3ccc(C(=O)O)cc3)ccc21` [AM80], for which, in the test with γδ T cells [5], the “IL-17 production by γδ T cells” value is on record as “suppress”.

With `C=C(c1ccc(C(=O)O)cc1)c1cc2c(cc1C)C(C)(C)CCC2(C)C` [Bexarotene], the “effect … in supernatants” value in the test on γδ T cells [1] was “suppressive effects”.

Take `CC/C=C\C/C=C\C/C=C\C/C=C\C/C=C\C/C=C\CCC(=O)O` [DHA, omega-3 docosahexaenoic acid]: the “effect … in supernatants” value in the test with γδ T cells [1] is given as “suppressive effects”.

Turning to `CN1c2ccc([N+](=O)[O-])cc2N=C(c2ccc(C(=O)O)cc2)c2cc3c(cc21)C(C)(C)CCC3(C)C` [HX531], the “effect on suppressive activity of the RAR agonist ATRA on IL-17A/F” value in the test with γδ T cells [1] (C57BL/6 γδ T cells, anti-CD3/CD28 beads plus IL-23 (FIG. 12)) is on record as “did not have any effect”. Moreover, the “effect on the suppressive effects of RXRα agonists on IL-17A/F” value in the test with γδ T cells [1] (C57BL/6 γδ T cells, anti-CD3/CD28 beads plus IL-23, with 9-cisRA, Bexarotene, DHA, oleic acid, honokiol (FIG. 12)) is “blocked”.

As to `CC1=C(/C=C/C(C)=C/C=C/C(C)=C/C(=O)O)C(C)(C)CCC1` [all trans retinoic acid], in the test with γδ T cells [1], the “effect … in supernatants” value is given as “suppressive activity”.

Turning to `C=CCc1ccc(O)c(-c2ccc(O)c(CC=C)c2)c1` [honokiol], the “effect … in supernatants” value in the test on γδ T cells [1] is given as “suppressive effects”.

With `CCCCCCCC/C=C\CCCCCCCC(=O)O` [oleic acid], the “effect … in supernatants” value in the test with γδ T cells [1] is “suppressive effects”.
